Assay results: patent US12077607B2, “Functional and therapeutic effects of PAR4 cleavage by cathepsin G” (UNIVERSITY OF UTAH RESEARCH FOUNDATION, priority 2021, dated 2024)

Legend:
WT human PAR4 (hPAR4) = molecular target: T1, WT human PAR4 (hPAR4) (Homo sapiens, UniProt Q96RI0); assay: PAR4 calcium flux assay in HEK293T/17 cells expressing WT PAR4; format: cell-based; settings: CatG 2.5 μM; 100 nM vorapaxar
T1 construct: Flag; expressed in transfected cells; host or cells: HEK293T/17 (ATCC CRL-11268)
T1 sequence (Q96RI0 18-385): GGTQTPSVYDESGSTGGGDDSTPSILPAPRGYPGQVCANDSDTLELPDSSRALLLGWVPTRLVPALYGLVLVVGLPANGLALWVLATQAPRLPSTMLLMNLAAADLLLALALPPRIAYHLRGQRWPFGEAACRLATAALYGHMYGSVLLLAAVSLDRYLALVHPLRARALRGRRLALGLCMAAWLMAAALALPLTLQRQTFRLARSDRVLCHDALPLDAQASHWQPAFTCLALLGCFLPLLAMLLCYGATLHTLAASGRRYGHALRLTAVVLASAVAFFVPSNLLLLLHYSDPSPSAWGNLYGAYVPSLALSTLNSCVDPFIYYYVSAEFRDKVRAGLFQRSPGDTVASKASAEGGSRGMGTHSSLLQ
Procedure: PAR4 calcium flux assays. PAR4-dependent calcium flux was measured using Fura2-QBT in platelets and HEK293T/17 cells with wild-type (WT) and mutant PAR4 (Tourdot et al., Arterioscler Thromb Vasc Biol. 2014; 34(12):2644-2650).
PAR4 mutant calcium flux assays. Using Quikchange Lightning Site-Directed mutagenesis (Agilent) per manufacturing instructions, pCMV-Flag-PAR4-S66E, pCMV-Flag-PAR4-S67E, and pCMV-Flag-PAR4-R68E were generated from mutation of pCMV-Flag-PAR4 and confirmed by sequencing (University of Utah DNA Sequencing Core). Prior to transfection, HEK293T/17 cells (ATCC CRL-11268) were seeded at 4.5×10^4/mL. The following day, cells were transfected with the plasmid of interest using Lipofectamine 2000 (Invitrogen, Carlsbad, CA, USA). Twenty-four hours after transfection, media was removed and replaced with Optimem w/Glutamax (Gibco, Carlsbad, CA, USA) containing vorapaxar (100 nM) (Cayman Chemical, Ann Arbor, MI, USA) and Fura2-QBT (Molecular Devices). Following incubation for 1 hour at 37° C., plate was placed in the Flexstation 3 (Molecular Devices) where agonists, Tyrode's Buffer, cathepsin G (2.5 μM), or α-thrombin (1.5 U/mL), were injected onto cells and calcium mobilization was monitored and recorded.

washed platelets = assay: Platelet activation by flow cytometry (PAC-1 binding, P-selectin); format: cell-based, human
Procedure: Platelet isolation, aggregation, and activation. Human washed platelets were prepared and resuspended in Tyrode's Buffer at 2×10^8/mL as described (Edelstein et al., Nat Med. 2013; 19(12):1609-1616). For human and dog platelet comparisons, platelets were prepared using a modified human platelet protocol with final concentrations of […] (Cayman Chemical, Ann Arbor, MI, USA) used during centrifugation steps. Centrifugations after Tyrode's washes was decreased to 1,250×g as described in Cremer et al., PLOS One. 2019; 14(11): e0224891. Platelet aggregation was measured under stirring conditions at 37° C. using a PAP-8E aggregometer after treatment with the following agonists: arachidonic acid (Bio/Data Corporation, Horsham, PA, USA), cathepsin G, elastase, proteinase 3 (Athens Research Group), α-thrombin (Sigma, St. Louis, MO, USA), PAR-1 peptide (SFLLRN) (GL Biochem, China). P-selectin and PAC-1 were measured as previously described (Yee et al., J Thromb Haemost. 2006; 4(9):2043-2050; Tourdot et al., Arterioscler Thromb Vasc Biol. 2014; 34(12):2644-2650).
GYPGQV-NH2 (SEQ ID NO: 5), RALLLGWVPTR-NH2 (SEQ ID NO: 1), ALLLGWVPTR-NH2 (SEQ ID NO: 2), RALLLG-NH2 (SEQ ID NO: 4). Peptides were synthesized by BIOMATIK (Wilmington, DE, USA) at similar purities. All peptides were suspended in 50% DMSO and 50% ethanol. To measure platelet activation, washed platelets were stimulated with various concentrations of the peptide in the presence of CD41-APC, P-selectin (PE) and PAC-1 (FITC) for 15 minutes at 37° C. and then fixed with FACS Lysis Buffer. Samples were immediately run on a Cytoflex flow cytometer. In some experiments, platelets were stimulated with peptides and platelet aggregation performed as described above. Platelet calcium flux was induced by RALLLGWVPTR (2 mM; SEQ ID NO: 1), CatG (500 nM), ALLLGWVPTR (2 mM; SEQ ID NO: 2) or tyrodes buffer and monitored as described above.

[1] = CatG stimulation, increasing concentrations

Q: For “CatG: serine protease cathepsin G released by activated neutrophils”, which “CatG-induced calcium flux, WT PAR4 compared with mock transfection” value (WT human PAR4 (hPAR4)) is on record?
A: increased calcium flux

Q: What about the “P-selectin expression, PAR4 Thr120 homozygous platelets compared with Ala120” value (washed platelets; [1]) of the same substance?
A: modest but significantly greater

Q: And the “αIIbβ3 activation, PAR4 Thr120 homozygous platelets compared with Ala120” value (washed platelets; [1])?
A: modest but significantly greater

Q: What about the “αIIbβ3 activation (PAC-1 binding) induced by neutrophil serine protease” value (washed platelets; washed platelets, varying concentrations) of the same substance?
A: only protease to induce
